In data set [1] the target is T1, PTH1 (PTHR1), SaOS2 cells (Homo sapiens, UniProt Q03431).
T1 construct: host or cells: SaOS2 cells (as named in the result head)
T1 sequence (Q03431 27-593): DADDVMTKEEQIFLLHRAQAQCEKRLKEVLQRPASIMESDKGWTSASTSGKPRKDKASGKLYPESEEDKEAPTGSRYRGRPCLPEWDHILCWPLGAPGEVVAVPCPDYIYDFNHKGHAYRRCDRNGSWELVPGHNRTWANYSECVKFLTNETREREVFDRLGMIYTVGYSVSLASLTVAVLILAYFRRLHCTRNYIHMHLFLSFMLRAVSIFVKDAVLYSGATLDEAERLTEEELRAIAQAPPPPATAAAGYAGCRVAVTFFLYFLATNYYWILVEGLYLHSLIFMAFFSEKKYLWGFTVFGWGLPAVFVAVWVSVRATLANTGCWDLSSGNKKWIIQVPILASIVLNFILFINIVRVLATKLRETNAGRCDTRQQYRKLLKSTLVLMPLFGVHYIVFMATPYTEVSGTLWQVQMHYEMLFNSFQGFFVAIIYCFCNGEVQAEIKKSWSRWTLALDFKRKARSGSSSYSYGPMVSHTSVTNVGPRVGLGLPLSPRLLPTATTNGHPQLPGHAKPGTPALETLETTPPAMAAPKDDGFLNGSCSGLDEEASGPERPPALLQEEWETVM
Description: PTH1 cellular assay, cAMP generated in SaOS2 cells, Cerep. It counts as cell-based. On the procedure: Compounds were weighed precisely in an amount of approximately 1 mg and assayed in standard cellular assays (cerep SA). The readout is the amount of cAMP generated in the cells treated with the test compounds, in either agonist or antagonist mode.
Compounds were dissolved in water and diluted in assay buffer containing 1% bovine serum albumin.

Data set [2] in a line: blood PO4 and Ca levels in rats after a single sc injection. It counts as in vivo, rat. The source says: Following the method of Frolik, C.
Data set [3] has as its target T2, delta2 opioid receptor (Mus musculus, UniProt P32300).
T2 construct: Cerep SA (contract research organization)
Briefly: delta2 opioid receptor cellular assay (DOP, agonist and antagonist mode), cAMP readout, Cerep. It counts as cell-based. Conditions: in competition with 30 nM DPDPE. On the procedure: (§1) Compounds were weighed precisely in an amount of approximately 2 mg and assayed in standard cellular assays by the contract research organization Cerep, Inc. (Pullman, Wash.) as executed at their subsidiary, Cerep SA (Le Bois l'Eveque, France). The readout is the amount of cAMP generated in the cells treated with the test compounds, in either agonist or antagonist mode. The assays used were the mu opioid receptor cellular assay (MOP in agonist and antagonist mode), the delta2 opioid receptor cellular assay (DOP in agonist and antagonist mode) and the kappa opioid receptor cellular assay (KOP in agonist and antagonist mode). The assays used are described in Wang, J. B., et al. (1994) FEBS Lett 338: 217-222, Law, P. Y. and Loh, H. H. (1993) Mol Pharmacol 43: 684-693, and Avidor-Reiss, T., et al. (1995) FEBS Lett 361: 70-74. The stimulant for the cells in the DOR antagonist assay was 3×10E-8M DPDPE, a well-accepted DOR literature standard.

Data set [4] addresses T3, mu opioid receptor (Homo sapiens, UniProt P35372).
T3 construct: Cerep SA (contract research organization)
Description: mu opioid receptor cellular assay (MOP, agonist and antagonist mode), cAMP readout, Cerep. It is filed as cell-based. The procedure:
as §1

“Also recorded” adds a separate entry of the source. Non-standard residues stand in square brackets, D forms with d. Residues, ends and D or L forms follow the SMILES beside them. *: point of attachment. GlcA(β-D,1-O-dodecyl) = CCCCCCCCCCCCO[C@@H]1O[C@H](C(=O)*)[C@@H](O)[C@H](O)[C@H]1O; hArg = N=C(N)NCCCC[C@H](N)C(=O)O; Nle = CCCC[C@H](N)C(=O)O; Ac5c = NC1(C(=O)O)CCCC1; Aib = CC(C)(N)C(=O)O

T3 sequence (P35372 whole entry): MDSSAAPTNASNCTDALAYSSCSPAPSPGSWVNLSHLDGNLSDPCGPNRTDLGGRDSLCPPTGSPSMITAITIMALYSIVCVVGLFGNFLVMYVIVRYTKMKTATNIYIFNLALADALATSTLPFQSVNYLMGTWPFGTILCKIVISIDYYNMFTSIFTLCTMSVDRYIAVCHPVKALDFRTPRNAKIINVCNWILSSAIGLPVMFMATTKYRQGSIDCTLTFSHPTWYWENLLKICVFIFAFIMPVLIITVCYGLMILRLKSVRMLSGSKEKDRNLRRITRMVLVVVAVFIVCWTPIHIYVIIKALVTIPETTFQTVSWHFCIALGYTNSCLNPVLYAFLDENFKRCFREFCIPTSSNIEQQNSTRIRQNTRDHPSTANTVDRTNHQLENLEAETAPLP
T2 sequence (P32300 whole entry): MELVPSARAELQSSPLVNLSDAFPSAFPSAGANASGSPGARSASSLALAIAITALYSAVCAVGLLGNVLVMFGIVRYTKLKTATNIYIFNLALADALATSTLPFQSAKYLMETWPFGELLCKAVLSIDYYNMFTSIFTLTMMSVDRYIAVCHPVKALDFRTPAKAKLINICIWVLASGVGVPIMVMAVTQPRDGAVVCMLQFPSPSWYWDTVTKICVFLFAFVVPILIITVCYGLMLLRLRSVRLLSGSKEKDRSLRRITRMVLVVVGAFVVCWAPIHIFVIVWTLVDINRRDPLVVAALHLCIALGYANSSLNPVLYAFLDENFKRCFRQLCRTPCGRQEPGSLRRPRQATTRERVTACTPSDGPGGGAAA

Consider `CCCCCCCCCCCCO[C@@H]1O[C@H](C(=O)NCCCC[C@H](NC(=O)C(C)(C)NC(=O)[C@H](CCC(N)=O)NC(=O)[C@@H](NC(=O)[C@H](Cc2c[nH]c3ccccc23)NC(=O)[C@H](CCCNC(=N)N)NC(=O)[C@H](C)NC(=O)[C@H](CCCCNC(=N)N)NC(=O)[C@H](CCC(N)=O)NC(=O)[C@H](Cc2c[nH]cn2)NC(=O)[C@H](CCCC)NC(=O)[C@H](CC(C)C)NC(=O)[C@H](CCC(N)=O)NC(=O)[C@@H](NC(=O)[C@H](CCC(=O)O)NC(=O)C(C)(C)NC(=O)[C@@H](NC(=O)C2(N)CCCC2)C(C)C)[C@@H](C)CC)[C@@H](C)CC)C(=O)NC(C)(C)C(N)=O)[C@@H](O)[C@H](O)[C@H]1O` [EU-232] (H-[Ac5c]V[Aib]EIQL[Nle]HQ[hArg]ARWIQ[Aib]K(GlcA(β-D,1-O-dodecyl))[Aib]-NH2), for which, in data set [1], the Characterization entry was “agonist” and the “character of the cellular cAMP response” value is reported as “super-agonistic response; also recorded: super-agonistic activity”. The “time of maximal statistically significant effect on blood phosphate” value in data set [2] (rat serum, sc dosing, last time point of the assay (FIG. 6)) was 5 h. In addition, the “blood calcium levels versus control (saline/vehicle)” value in data set [2] (rat, sc, 80 (PTH, EU-232) or 320 (EU-232), all time points) is “No groups were statistically significantly different from control”. The “blood calcium at maximally effective dose and time point” value in data set [2] (rat, sc, G4 320, at 5 hrs) is “no elevation”. For the same compound, the “blood PO4 levels, 80 mcg groups” value in data set [2] (rat, single sc injection, 80 mcg, PO4 did not further diminish after 1 hour) was “transient but not statistically significant decrease”. In addition, the “maximal decrease of blood PO4 from time 0 hr. level” value in data set [2] (rat, single sc injection, seen at the 5 hr. time point, statistically significant) is 25-35%.
On to “2′,6′-dimethyl-L-tyrosyl-L-1,2,3,4-tetrahydroisoquinoline-3-carbonyl-L-phenylalanyl-Nε-(1′-methyl R-D-glucuronyl)-L-lysyl-amide [EU-A178]”, for which the “action on the DOP receptor (FIG. 11)” value in data set [3] was “highly potent action as a pure antagonist”. For the same compound, in data set [4], the “behavior in the MOP agonist assay (FIG. 11)” value is on record as “potent, full agonistic behavior”. For the same compound, the Characterization result in data set [4] (MOP agonist mode and DOP antagonist mode) is listed as “Pure MOP Ag; pure DOP antag”.

(Values after patent publication US10420844B2, “Peptide pharmaceuticals” (Mederis Diabetes LLC, priority 2011, dated 2019).)
